Patent EP1401829B1, “NOVEL HETEROCYCLIC ANTIBACTERIAL COMPOUNDS” (Microbiotix, Inc., priority 2001, dated 2002)
Values after ≈ are worked out from the molar mass of the structure shown.

How the values were obtained:
[1] = tested on: B. subtilis; assay: Minimal Inhibitory Concentration (MIC) determination, 96 well plates; type: cell-based, Bacillus subtilis; details: Bacillus subtilis; HBI medium, 16 to 18 hours at 37°C; read-out: MIC (µg/ml) B. subtilis
Procedure: (§1) The following methods were used to characterize representative compounds. Minimal Inhibitory Concentration (MIC) determinations. MIC values were determined in 96 well plates, with bacterial growth monitored at OD 600 nm in 200µl following an initial bacterial seeding at approximately 1x10^5 colony forming units (CFU)/ml. Each drug is evaluated at five concentrations, with five data points at each dilution. MIC values (µg/ml) were determined against actively growing cultures in Heart-Brain Infusion (HBI) medium. Cell growth in cultures supplemented with a test compound was calculated as a percent of control at OD 600 nm after 16 to 18 hours at 37°C. […] Polymerase IIIC (Pol IIIC) assay. DNA polymerase activity (or inhibition thereof) was measured in a 96-well plate format. B. subtilis Pol IIIC was isolated as described by Hammond and Brown (Protein Expr. Purif., 3: 65-70 (1992)). Each 25 µl assay contained 30 mM Tris, pH 7.5, 10 mM magnesium acetate, 4 mM dithiothreitol, 20% glycerol, with 25 µM dATP, dCTP, dGTP and 10 µM dTTP (^3H-labelled at 1.44 Ci/mmole) and 0.4 mg/ml activated calf thymus DNA as substrates, as described previously (see Barnes et al, op. cit). Assays were initiated by the addition of 0.025 to 0.06 units of enzyme 1 unit is the amount required to incorporate 250 pmoles of [^3H] dTMP in a standard assay), incubated for 10 minutes at 30°C and terminated by the addition of 200 µl of cold 10% trichloroacetic acid (TCA),10 mM sodium pyrophosphate. Precipitated labeled DNA was collected on glass fiber filter plates, washed, dried, and counted in a liquid scintillation counter. Determination of Ki values. DNA polymerase activity was measured in a 96-well plate format in the absence of dGTP or dATP, depending on the structure of the test compound. Each 25 µl assay contained 30 mM Tris, pH 7.5, 10 mM magnesium acetate, 4 mM dithiothreitol, 20% glycerol, with 25 µM dATP, dCTP, and 10 µM dTTP (^3H-labelled at 1.44 Ci/mmole) and 0.4 mg/ml activated calf thymus DNA as substrates, as described previously. […] Assays were initiated by the addition of 0.025 to 0.06 units of enzyme (1 unit is the amount required to incorporate 250 pmoles of [^3H] dTMP in a standard assay), incubated for 10 minutes at 30 °C and terminated by the addition of 200 µl of cold 10% trichloroacetic acid, 10 mM sodium pyrophosphate. Precipitated labeled DNA was collected on glass fiber filter plates, washed, dried, and counted in a liquid scintillation counter. Ki is the concentration of test compound that reduces the control polymerase IIIC activity by 50 percent.
(§2) MIC values were determined for the Gram positive bacteria Bacillus subtilis, Staphylococcus aureus (two strains), Enterococcus fecalis, Enterococcus fecium, and for the Gram negative bacterium Escherichia coli.

[2] = tested on: S. aureus; assay: as above; type: cell-based, Staphylococcus aureus; details: Staphylococcus aureus; HBI medium, 16 to 18 hours at 37°C; read-out: MIC (µg/ml) S. aureus
Procedure: (§3) The following methods were used to characterize representative compounds. Minimal Inhibitory Concentration (MIC) determinations. MIC values were determined in 96 well plates, with bacterial growth monitored at OD 600 nm in 200µl following an initial bacterial seeding at approximately 1x10^5 colony forming units (CFU)/ml. Each drug is evaluated at five concentrations, with five data points at each dilution. MIC values (µg/ml) were determined against actively growing cultures in Heart-Brain Infusion (HBI) medium. Cell growth in cultures supplemented with a test compound was calculated as a percent of control at OD 600 nm after 16 to 18 hours at 37°C. This plate format conserves test compound and provides precise, quantitative data with low standard deviation determinations. Polymerase IIIC (Pol IIIC) assay. DNA polymerase activity (or inhibition thereof) was measured in a 96-well plate format. B. subtilis Pol IIIC was isolated as described by Hammond and Brown (Protein Expr. Purif., 3: 65-70 (1992)). Each 25 µl assay contained 30 mM Tris, pH 7.5, 10 mM magnesium acetate, 4 mM dithiothreitol, 20% glycerol, with 25 µM dATP, dCTP, dGTP and 10 µM dTTP (^3H-labelled at 1.44 Ci/mmole) and 0.4 mg/ml activated calf thymus DNA as substrates, as described previously (see Barnes et al, op. cit). Assays were initiated by the addition of 0.025 to 0.06 units of enzyme 1 unit is the amount required to incorporate 250 pmoles of [^3H] dTMP in a standard assay), incubated for 10 minutes at 30°C and terminated by the addition of 200 µl of cold 10% trichloroacetic acid (TCA),10 mM sodium pyrophosphate. Precipitated labeled DNA was collected on glass fiber filter plates, washed, dried, and counted in a liquid scintillation counter. Determination of Ki values. DNA polymerase activity was measured in a 96-well plate format in the absence of dGTP or dATP, depending on the structure of the test compound. Each 25 µl assay contained 30 mM Tris, pH 7.5, 10 mM magnesium acetate, 4 mM dithiothreitol, 20% glycerol, with 25 µM dATP, dCTP, and 10 µM dTTP (^3H-labelled at 1.44 Ci/mmole) and 0.4 mg/ml activated calf thymus DNA as substrates, as described previously. To each well were added 2 µl of compound solution to give final concentrations ranging from 20 - 0.027 µg/ml in the assay. Assays were initiated by the addition of 0.025 to 0.06 units of enzyme (1 unit is the amount required to incorporate 250 pmoles of [^3H] dTMP in a standard assay), incubated for 10 minutes at 30 °C and terminated by the addition of 200 µl of cold 10% trichloroacetic acid, 10 mM sodium pyrophosphate. Precipitated labeled DNA was collected on glass fiber filter plates, washed, dried, and counted in a liquid scintillation counter. Ki is the concentration of test compound that reduces the control polymerase IIIC activity by 50 percent.
as §2

[3] = tested on: E. coli; assay: as above; type: cell-based, Escherichia coli; details: Escherichia coli; HBI medium, 16 to 18 hours at 37°C; read-out: MIC (µg/ml) E. coli
Procedure: as §3, §2

[4] = tested on: S.aureus (Smith); assay: as above; type: cell-based, Staphylococcus aureus; details: Staphylococcus aureus; HBI medium, 16 to 18 hours at 37°C; read-out: MIC (µg/ml) S.aureus (Smith)
Procedure: as §1, §2

[5] = tested on: E. fecalis; assay: as above; type: cell-based, Enterococcus fecalis; details: Enterococcus; HBI medium, 16 to 18 hours at 37°C; read-out: MIC (µg/ml) E. fecalis
Procedure: as §1, §2

[6] = tested on: E. fecium; assay: as above; type: cell-based, Enterococcus fecium; details: Enterococcus; HBI medium, 16 to 18 hours at 37°C; read-out: MIC (µg/ml) E. fecium
Procedure: as §1, §2

[7] = molecular target: T1, B. subtilis Pol IIIC (Bacillus subtilis, UniProt P13267); assay: Polymerase IIIC (Pol IIIC) assay, determination of Ki values; type: biochemical; details: Ki (µM) Pol IIIC, assay in absence of dGTP or dATP; Ki is the concentration that reduces control polymerase IIIC activity by 50 percent
T1 construct: made in house
T1 sequence (P13267 whole entry): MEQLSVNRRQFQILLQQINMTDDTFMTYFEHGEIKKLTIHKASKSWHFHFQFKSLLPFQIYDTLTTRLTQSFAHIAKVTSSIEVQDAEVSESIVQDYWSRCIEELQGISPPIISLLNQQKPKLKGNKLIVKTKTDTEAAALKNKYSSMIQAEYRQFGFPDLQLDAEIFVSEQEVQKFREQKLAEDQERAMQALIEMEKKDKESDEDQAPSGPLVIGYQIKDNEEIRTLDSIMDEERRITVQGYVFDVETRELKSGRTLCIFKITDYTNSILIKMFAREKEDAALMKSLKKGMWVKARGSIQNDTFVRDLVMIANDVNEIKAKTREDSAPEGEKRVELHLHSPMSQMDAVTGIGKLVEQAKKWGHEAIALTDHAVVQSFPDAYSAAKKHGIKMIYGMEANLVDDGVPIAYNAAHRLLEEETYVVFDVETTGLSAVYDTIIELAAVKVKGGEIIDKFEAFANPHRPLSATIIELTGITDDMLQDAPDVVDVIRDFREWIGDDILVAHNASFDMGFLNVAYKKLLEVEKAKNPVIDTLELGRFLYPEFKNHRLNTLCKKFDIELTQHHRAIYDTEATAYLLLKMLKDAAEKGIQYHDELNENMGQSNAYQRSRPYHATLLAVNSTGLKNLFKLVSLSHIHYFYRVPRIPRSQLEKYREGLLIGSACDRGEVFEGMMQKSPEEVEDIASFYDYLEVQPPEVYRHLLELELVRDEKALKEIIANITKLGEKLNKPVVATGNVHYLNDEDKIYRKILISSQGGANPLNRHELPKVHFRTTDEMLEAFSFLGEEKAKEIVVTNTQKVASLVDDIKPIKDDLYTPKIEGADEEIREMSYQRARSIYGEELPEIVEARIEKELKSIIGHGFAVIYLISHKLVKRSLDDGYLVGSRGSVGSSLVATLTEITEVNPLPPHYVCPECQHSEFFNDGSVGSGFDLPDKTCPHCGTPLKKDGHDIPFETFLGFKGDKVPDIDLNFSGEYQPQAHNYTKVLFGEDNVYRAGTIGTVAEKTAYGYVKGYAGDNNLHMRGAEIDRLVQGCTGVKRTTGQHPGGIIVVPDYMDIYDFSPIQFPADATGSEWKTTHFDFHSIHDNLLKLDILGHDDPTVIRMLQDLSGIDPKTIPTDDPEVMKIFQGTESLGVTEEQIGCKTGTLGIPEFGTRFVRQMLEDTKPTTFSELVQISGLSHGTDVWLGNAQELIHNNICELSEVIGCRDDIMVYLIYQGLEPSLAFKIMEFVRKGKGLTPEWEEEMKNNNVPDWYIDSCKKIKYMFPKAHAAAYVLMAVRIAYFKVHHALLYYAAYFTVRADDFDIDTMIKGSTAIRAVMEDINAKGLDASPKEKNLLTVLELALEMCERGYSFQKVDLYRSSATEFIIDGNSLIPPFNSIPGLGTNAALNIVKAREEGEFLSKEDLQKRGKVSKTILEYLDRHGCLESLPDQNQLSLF
Procedure: as §1

Row | SMILES | MIC [1] [µg/mL] | MIC [2] [µg/mL] | MIC [3] [µg/mL] | MIC [4] [µg/mL] | MIC [5] [µg/mL] | MIC [6] [µg/mL] | Ki [7] [µM]
1 | CCc1cc(Nc2cc(=O)n(CCCCCN3CCOC4CN(c5cc6c(cc5F)c(=O)c(C(=O)O)cn6C5CC5)CC43)c(=O)[nH]2)ccc1C (stereo not shown) [Compound 84, 3-{5-[1-(1-cyclopropyl-3-carboxy-4-oxo-6-fluoro-7-quinolyl)-3-(5-oxa-1,3-diazabicyclononyl)]pentyl}-6-(3-ethyl-4-methylanilino)uracil] | 0.313 (≈ 0.456 µM) | 1.25 (≈ 1.82 µM) | > 80 | 0.625 (≈ 0.91 µM) | 2.5 (≈ 3.64 µM) | 25 (≈ 36.4 µM) | 0.033
2 | CCc1cc(Nc2cc(=O)n(CCCCCN3CCOC4CN(c5c(F)cc6c(=O)c(C(=O)O)cn(CC)c6c5F)CC43)c(=O)[nH]2)ccc1C (stereo not shown) [Compound 85, 3-{5-[1-(1-ethyl-3-carboxy4-oxo-6,8-difluoro-7-quinolyl)-3-(5-oxa-1,3-diazabicyclononyl)]pentyl)-6-(3-ethyl-4-methylanilino)uracil] | 0.313 (≈ 0.452 µM) | 5 (≈ 7.22 µM) | > 80 | 6.1 (≈ 8.81 µM) | 7.5 (≈ 10.8 µM) | 12.5 (≈ 18 µM) | 0.059
3 | CCc1cc(Nc2cc(=O)n(CCCCCN3CC4CN(c5cc6c(cc5F)c(=O)c(C(=O)O)cn6C5CC5)CC4C3)c(=O)[nH]2)ccc1C (stereo not shown) [Compound 86, 3-{5-[1-(1-cyclopropyl-3-carboxy-4-oxo-6-fluoro-7-quinolyl)-4-(1,4-diazabicyclooctyl)]pentyl}-6-(3-ethyl-4-methylanilino)uracil] | 2.5 (≈ 3.73 µM) | 5 (≈ 7.45 µM) | > 80 | 2.5 (≈ 3.73 µM) | 10 (≈ 14.9 µM) | 40 (≈ 59.6 µM) | 0.054
4 | CCc1cc(Nc2cc(=O)n(CCCCN3CCOC4CN(c5cc6c(cc5F)c(=O)c(C(=O)O)cn6C5CC5)CC43)c(=O)[nH]2)ccc1C (stereo not shown) [Compound 87, 3-{4-[1-(1-cyclopropyl-3-carboxy-4-oxo-6-fluoro-7-quinolyl)-3-(5-oxa-1,3-diazabicyclononyl)]butyl}-6-(3-ethyl-4-methylanilino)uracil] | 0.313 (≈ 0.465 µM) | 1.87 (≈ 2.78 µM) | > 40 | 0.625 (≈ 0.929 µM) | 2.5 (≈ 3.72 µM) | 7.5 (≈ 11.1 µM) | 0.088
5 | CCc1cc(Nc2cc(=O)n(CCCCN3CCN(c4cc5c(cc4F)c(=O)c(C(=O)O)cn5-c4ccc(F)cc4F)CC3C)c(=O)[nH]2)ccc1C (stereo not shown) [Compound 89, 3-{4-[1-(1-{2,4-difluorophenyl}-3-carboxy-4-oxo-6-fluoro-7-quinolyl)-3-methyl-4-piperazinyl]butyl}-6-(3-ethyl-4-methylanilino)uracil] | 0.156 (≈ 0.218 µM) | 0.313 (≈ 0.437 µM) | > 80 | 0.156 (≈ 0.218 µM) | 0.625 (≈ 0.872 µM) | 0.625 (≈ 0.872 µM) | 0.018
6 | CCc1cc(Nc2cc(=O)n(CCCCN3CCN(c4cc5c(cc4F)c(=O)c(C(=O)O)cn5-c4ccc(F)cc4F)C[C@H]3C)c(=O)[nH]2)ccc1C [Compound 90, (R)-3-{4-[1-(1-{2,4-difluorophenyl}-3-carboxy-4-oxo-6-fluoro-7-quinolyl)-3-methyl-4-piperazinyl]butyl}-6-(3-ethyl-4-methylanilino)uracil] | 0.236 (≈ 0.329 µM) | 0.625 (≈ 0.872 µM) | > 40 | 0.313 (≈ 0.437 µM) | 1.25 (≈ 1.74 µM) | 1.25 (≈ 1.74 µM) | 0.017
7 | CCc1cc(Nc2cc(=O)n(CCCCN3CCN(c4c(F)cc5c(=O)c(C(=O)O)cn(C6CC6)c5c4F)CC3CO)c(=O)[nH]2)ccc1C (stereo not shown) [Compound 91, 3-{4-[1-(1-cyclopropyl-3-carboxy-4-oxo-6,8-difluoro-7-quinolyl)-3-hydroxymethyl-4-piperazinyl]butyl}-6-(3-ethyl-4-methylanilino)uracil] | 0.235 (≈ 0.346 µM) | 1.25 (≈ 1.84 µM) | > 80 | 0.625 (≈ 0.921 µM) | 2.5 (≈ 3.68 µM) | 2.5 (≈ 3.68 µM) | 0.011
8 | CC1CN(c2c(F)cc3c(=O)c(C(=O)O)cn(C4CC4)c3c2F)CCN1CCCCn1c(=O)cc(Nc2ccc3c(c2)CCC3)[nH]c1=O (stereo not shown) [Compound 92, 3-{4-[1-(1-cyclopropyl-3-carboxy-4-oxo-6,8-difluoro-7-quinolyl)-3-methyl-4-piperazinyl]butyl}-6-(5-indanylamino)uracil] | 0.117 (≈ 0.177 µM) | 0.313 (≈ 0.474 µM) | 2.5 (≈ 3.78 µM) | 0.235 (≈ 0.356 µM) | 0.625 (≈ 0.946 µM) | 0.937 (≈ 1.42 µM) | 0.016
9 | Cc1ccc(Nc2cc(=O)n(CCCCN3CCN(c4c(F)cc5c(=O)c(C(=O)O)cn(C6CC6)c5c4F)CC3C)c(=O)[nH]2)cc1C (stereo not shown) [Compound 94, 3-{4-[1-(1-cyclopropyl-3-carboxy-4-oxo-6,8-difluoro-7-quinolyl)-3-methyl-4-piperazinyl]butyl}-6-(3,4-dimethylanilino)uracil] | 0.156 (≈ 0.24 µM) | 0.625 (≈ 0.963 µM) | 2.5 (≈ 3.85 µM) | 0.313 (≈ 0.482 µM) | 1.25 (≈ 1.93 µM) | 2.5 (≈ 3.85 µM) | 0.026
10 | CCc1cc(Nc2cc(=O)n(CCCCN3CCN(c4cc5c(cc4F)c(=O)c(C(=O)O)cn5C4CC4)C[C@H]3C)c(=O)[nH]2)ccc1C [Compound 95, (R)-3-{4-[1-(1-cyclopropyl-3-carboxy-4-oxo-6-fluoro-7-quinolyl)-3-methyl-4-piperazinyl]butyl}-6-(3-ethyl-4-methylanilino)uracil] | 0.235 (≈ 0.364 µM) | 1.25 (≈ 1.94 µM) | 10 (≈ 15.5 µM) | 0.625 (≈ 0.969 µM) | 0.625 (≈ 0.969 µM) | 0.625 (≈ 0.969 µM) | 0.012
